Laboratory results from PMC7261188 (Nucleic Acids Research, 2020).

Molecular target: SFTSV CBD (cap-binding domain of SFTSV L protein) (Severe fever with thrombocytopenia syndrome virus, UniProt I0DF35)
Experiment: biochemical

Chain of SFTSV CBD (cap-binding domain of SFTSV L protein) (I0DF35 1695-1810 limits assumed): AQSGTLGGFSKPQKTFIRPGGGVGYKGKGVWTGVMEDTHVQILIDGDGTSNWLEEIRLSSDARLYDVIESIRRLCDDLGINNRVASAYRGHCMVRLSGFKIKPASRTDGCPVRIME

Structure (SMILES): C[n+]1cn([C@@H]2O[C@H](COP(=O)(O)OP(=O)(O)OP(=O)(O)O)[C@@H](O)[C@H]2O)c2nc(N)[nH]c(=O)c21 [m^7GTP]
- Kd: ~138 µM
